In patent US4921850A, “3-propenylcephem derivative” (Eisai Co., Ltd., priority 1986, dated 1990):
Values after ≈ are worked out from the molar mass of the structure shown. Read-outs that look alike come from different tables or passages of the source.

Columns and labels:
[1] = system: Enterobacter cloacae E-74; test: Comparison test of anti-bacterial activity (MIC); assay type: cell-based; details: E74, 18 h, comparison R1 = CH2F vs CH3
Protocol: (§1) MIC (μg/ml) were determined by an agar dilution method [Chemotherapy (Japan), 29, 76-79, 1981]. Overnight cultures of the bacterial strains in Mueller-Hinton broth were diluted to final concentration of about 10^6 CFU/ml, and 5 μl of each bacterial suspension was spotted onto Mueller-Hinton agar plates that contained twofold serial dilutions of antibiotics. MICs were measured after incubation for 18 hours at 37° C.
(§2) Comparison tests of the anti-bacterial activities were conducted between the compounds of the following formula according to the present invention and the corresponding control compounds wherein R1 represents methyl group. Measurements of MIC are the same as described in the above item 2.

Staph. aureus E 31106 = test: Comparison test of anti-bacterial activity (MIC); assay type: cell-based; details: Staphylococcus aureus, E31106, 18 h, comparison R1 = CH2F vs CH3
Protocol: as §1, §2

Proteus vulgaris E 08042 = test: Comparison test of anti-bacterial activity (MIC); assay type: cell-based; details: E08042, 18 h, comparison R1 = CH2F vs CH3
Protocol: as §1, §2

[2] = system: Xantomonas maltophilia E 04004; test: Comparison test of anti-bacterial activity (MIC); assay type: cell-based; details: 18 h, comparison R1 = CH2F vs CH3
Protocol: as §1, §2

in vivo = details: read-out: values of acute toxicity
Source text: (1) Acute toxicity in mouse:
The compounds according to this invention dissolved in a physiological saline solution were intravenously dosed to five ICR male 6 weeks-old mouse.

Escher. coli NIHJ = test: Anti-bacterial activity (MIC), agar dilution; assay type: cell-based; details: Escherichia coli, 18 h, Escher. coli NIHJ; agar dilution, about 10^6 CFU/ml, 18 hours, 37° C.; read-out: MIC
Method in brief: (§3)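 Overnight Mueller-Hinton broth cultures were diluted to about 10^6 CFU/ml and spotted onto Mueller-Hinton agar plates carrying twofold serial dilutions of antibiotic. After 18 hours at 37° C, MIC (μg/ml) was determined by agar dilution.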

[3] = system: Morganella morganii EP-14; test: Anti-bacterial activity (MIC), agar dilution; assay type: cell-based; details: Morganella morganii, EP14, 18 h, about 10^6 CFU/ml, 37° C., read-out: MIC
Method in brief: as §3

Pseud. aeruginosa EP-01 = test: Anti-bacterial activity (MIC), agar dilution; assay type: cell-based; details: Pseudomonas aeruginosa, EP01, 18 h, Pseud. aeruginosa EP-01; agar dilution, about 10^6 CFU/ml, 18 hours, 37° C.; read-out: MIC
Method in brief: as §3

Staph. aureus 209-P = test: Anti-bacterial activity (MIC), agar dilution; assay type: cell-based; details: Staphylococcus aureus, 209P, 18 h, Staph. aureus 209-P; agar dilution, about 10^6 CFU/ml, 18 hours, 37° C.; read-out: MIC
Method in brief: as §3

Kleb. pneumoniae EK-6 = test: Anti-bacterial activity (MIC), agar dilution; assay type: cell-based; details: Klebsiella pneumoniae, EK6, 18 h, Kleb. pneumoniae EK-6; agar dilution, about 10^6 CFU/ml, 18 hours, 37° C.; read-out: MIC
Method in brief: as §3

Ser. marcescens ES-75 = test: Anti-bacterial activity (MIC), agar dilution; assay type: cell-based; details: Serratia marcescens, ES75, 18 h, Ser. marcescens ES-75; agar dilution, about 10^6 CFU/ml, 18 hours, 37° C.; read-out: MIC
Method in brief: as §3

[4] = intravenous, physiological saline solution, five ICR male 6 weeks-old mouse

Row | MIC [1] [µg/mL] | MIC (Staph. aureus E 31106) [µg/mL] | MIC (Proteus vulgaris E 08042) [µg/mL] | MIC [2] [µg/mL] | SMILES | LD50 (in vivo; [4]) [mg/kg] | MIC (Escher. coli NIHJ) [µg/mL] | MIC [3] [µg/mL] | MIC (Pseud. aeruginosa EP-01) [µg/mL] | MIC (Staph. aureus 209-P) [µg/mL] | MIC (Kleb. pneumoniae EK-6) [µg/mL] | MIC (Ser. marcescens ES-75) [µg/mL] | LD50 (in vivo; mouse, iv) [mg/kg]
1 | 3.13 (≈ 5.74 µM) | 12.5 (≈ 22.9 µM) | 12.5 (≈ 22.9 µM) | 50 (≈ 91.6 µM) | CO/N=C(\C(=O)N[C@@H]1C(=O)N2C(C(=O)[O-])=C(/C=C/C[n+]3ccc(C(=O)O)cc3)CS[C@H]12)c1nsc(N)n1 [CH3 (Control) to Example 125, reference compound] |  |  |  |  |  |  |  | 
2 | 0.1 (≈ 0.197 µM) |  | 1.56 (≈ 3.07 µM) | 100 (≈ 197 µM) | CO/N=C(\C(=O)N[C@@H]1C(=O)N2C(C(=O)[O-])=C(/C=C/C[N+]3(C)CCCC3)CS[C@H]12)c1nsc(N)n1 [CH3 (Control) to Example 126, reference compound] |  |  |  |  |  |  |  | 
3 | 0.4 (≈ 0.735 µM) | 6.25 (≈ 11.5 µM) | 3.13 (≈ 5.75 µM) | 50 (≈ 91.8 µM) | CO/N=C(\C(=O)N[C@@H]1C(=O)N2C(C(=O)[O-])=C(/C=C/C[n+]3ccc(C(N)=O)cc3)CS[C@H]12)c1nsc(N)n1 [CH3 (Control) to Example 127, reference compound] |  |  |  |  |  |  |  | 
4 | 0.2 (≈ 0.415 µM) | 6.25 (≈ 13 µM) | 6.25 (≈ 13 µM) | > 100 | CO/N=C(\C(=O)N[C@@H]1C(=O)N2C(C(=O)[O-])=C(/C=C/C[N+](C)(C)C)CS[C@H]12)c1nsc(N)n1 [CH3 (Control) to Example 128, reference compound] |  |  |  |  |  |  |  | 
5 |  |  |  |  | C[N+]1(C/C=C/C2=C(C(=O)[O-])N3C(=O)[C@@H](NC(=O)/C(=N\OCF)c4nsc(N)n4)[C@H]3SC2)CCN(C(N)=O)CC1 [Example 121, 7β-[2-(5-Amino-1,2,4-thiadiazol-3-yl)-(Z)-2-fluoromethoxyiminoacetamido]-3-[(E)-3-(1-methyl-4-carbamoyl-1-piperazinio)-1-propen-1-yl]-3-cephem-4-carboxylate] | > 2000 | ≤ 0.025 | ≤ 0.025 | 0.8 (≈ 1.37 µM) | 0.2 (≈ 0.343 µM) | ≤ 0.025 | 0.1 (≈ 0.171 µM) | 
6 | 0.4 (≈ 0.71 µM) | 6.25 (≈ 11.1 µM) | 0.2 (≈ 0.355 µM) | 25 (≈ 44.4 µM) | Nc1nc(/C(=N/OCF)C(=O)N[C@@H]2C(=O)N3C(C(=O)[O-])=C(/C=C/C[n+]4ccc(C(=O)O)cc4)CS[C@H]23)ns1 [Example 125, 7β-[2-(5-Amino-1,2,4-thiadiazol-3-yl)-(Z)-2-fluoromethoxyiminoacetamido]-3-[(E)-3-(4-carboxypyridinio)-1-propen-1-yl]-3-cephem-4-carboxylate] |  | ≤ 0.025 | ≤ 0.025 | 1.56 (≈ 2.77 µM) | 0.4 (≈ 0.71 µM) | ≤ 0.025 | ≤ 0.025 | 
7 | 0.05 (≈ 0.0951 µM) | 1.56 (≈ 2.97 µM) | 0.05 (≈ 0.0951 µM) | 12.5 (≈ 23.8 µM) | C[N+]1(C/C=C/C2=C(C(=O)[O-])N3C(=O)[C@@H](NC(=O)/C(=N\OCF)c4nsc(N)n4)[C@H]3SC2)CCCC1 [Example 126, 7β-[2-(5-Amino-1,2,4-thiadiazol-3-yl)-(Z)-2-fluoromethoxyiminoacetamido]-3-[(E)-3-(1-methylpyrrolidinio)-1-propen-1-yl]-3-cephem-4-carboxylate] |  | ≤ 0.025 | ≤ 0.025 | 0.8 (≈ 1.52 µM) | 0.1 (≈ 0.19 µM) | ≤ 0.025 | 0.05 (≈ 0.0951 µM) | 
8 | ≤ 0.025 | 3.13 (≈ 5.56 µM) | ≤ 0.025 | 6.25 (≈ 11.1 µM) | NC(=O)c1cc[n+](C/C=C/C2=C(C(=O)[O-])N3C(=O)[C@@H](NC(=O)/C(=N\OCF)c4nsc(N)n4)[C@H]3SC2)cc1 [Example 127, 7β-[2-(5-Amino-1,2,4-thiadiazol-3-yl)-(Z)-2-fluoromethoxyiminoacetamido]-3-[(E)-3-(4-carbamoylpyridinio)-1-propen-1-yl]-3-cephem-4-carboxylate] |  | ≤ 0.025 | ≤ 0.025 | 0.8 (≈ 1.42 µM) | 0.1 (≈ 0.178 µM) | ≤ 0.025 | 0.05 (≈ 0.0889 µM) | 
9 | 0.1 (≈ 0.2 µM) | 3.13 (≈ 6.27 µM) | 0.1 (≈ 0.2 µM) | 25 (≈ 50 µM) | C[N+](C)(C)C/C=C/C1=C(C(=O)[O-])N2C(=O)[C@@H](NC(=O)/C(=N\OCF)c3nsc(N)n3)[C@H]2SC1 [Example 128, 7β-[2-(5-Amino-1,2,4-thiadiazol-3-yl)-(Z)-2-fluoromethoxyiminoacetamido]-3-[(E)-3-(trimethylammonio)-1-propen-1-yl]-3-cephem-4-carboxylate] |  | 0.05 (≈ 0.1 µM) | 0.05 (≈ 0.1 µM) | 0.8 (≈ 1.6 µM) | 0.2 (≈ 0.4 µM) | 0.05 (≈ 0.1 µM) | 0.1 (≈ 0.2 µM) | 
10 |  |  |  |  | C[N+](C)(C/C=C/C1=C(C(=O)[O-])N2C(=O)[C@@H](NC(=O)/C(=N\OCC#N)c3nsc(N)n3)[C@H]2SC1)[C@@H](CO)C(N)=O [Example 145, 7β-[2-(5-Amino-1,2,4-thiadiazol-3-yl)-(Z)-2-cyanomethoxyiminoacetamido]-3-[(E)-3-[(1S-carbamoyl-2-hydroxyethyl)dimethylammonio]-1-propen-1-yl]-3-cephem-4-carboxylate] | > 2000 | 0.2 (≈ 0.345 µM) | 0.1 (≈ 0.173 µM) | 1.56 (≈ 2.69 µM) | 0.4 (≈ 0.69 µM) | 0.1 (≈ 0.173 µM) | 0.1 (≈ 0.173 µM) | 
11 |  |  |  |  | C[N@@+]1(C/C=C/C2=C(C(=O)[O-])N3C(=O)[C@@H](NC(=O)/C(=N\OCC#N)c4nsc(N)n4)[C@H]3SC2)C[C@H](O)C[C@@H]1CO [Example 146, 7β-[2-(5-Amino-1,2,4-thiadiazol-3-yl)-(Z)-2-cyanomethoxyiminoacetamido]-3-[(E)-3-(1-methyl-2R-hydroxymethyl-4R-hydroxy-1-pyrrolidinio)-1-propen-1-yl]-3-cephem-4-carboxylate] |  | 0.1 (≈ 0.173 µM) | 0.05 (≈ 0.0864 µM) | 1.56 (≈ 2.7 µM) | 0.4 (≈ 0.691 µM) | 0.05 (≈ 0.0864 µM) | 0.05 (≈ 0.0864 µM) | > 2000
12 |  |  |  |  | CC(=O)C[N+](C)(C)C/C=C/C1=C(C(=O)[O-])N2C(=O)[C@@H](NC(=O)/C(=N\OCC#N)c3nsc(N)n3)[C@H]2SC1 [Example 154] | > 2000 | 0.1 (≈ 0.182 µM) | 0.1 (≈ 0.182 µM) | 0.8 (≈ 1.46 µM) | 0.4 (≈ 0.729 µM) | 0.1 (≈ 0.182 µM) | 0.1 (≈ 0.182 µM) | 
13 |  |  |  |  | C[N+](C)(C/C=C/C1=C(C(=O)[O-])N2C(=O)[C@@H](NC(=O)/C(=N\OCC#N)c3nsc(N)n3)[C@H]2SC1)CC(N)=O [Example 155] | > 2000 | 0.1 (≈ 0.182 µM) | 0.1 (≈ 0.182 µM) | 1.56 (≈ 2.84 µM) | 0.4 (≈ 0.728 µM) | 0.05 (≈ 0.091 µM) | 0.2 (≈ 0.364 µM) | 
